Reference: patent US7229757B2, “Compounds displayed on icosahedral phage and methods of using same” (Xenoport, Inc., priority 2001, dated 2007)

Biological target: T1, human folate receptor (Homo sapiens, UniProt P15328)
T1 construct: KB cells, which express high levels of the human folate receptor; endogenous in cells; host or cells: KB cells
Experiment: screening of the 36-member folate analog library on T7 phage for uptake into KB cells
Assay type: cell-based
Conditions: compound displayed on T7 phage
Method: KB cells were grown adherently in folate-free RPMI with 5% fetal bovine serum in a T75 flask. Prior to screening the compound library the media was removed and replaced with folate-free RPMI containing 0.1% BSA. An aliquot of the folate-analog phage library (˜10^9 pfu) was added to the flask containing 10^7 KB cells and incubated for 2 h at 37° C. Following the incubation period, the cells were detached from the flask by adding PBS containing 5 mM EDTA and incubating for 5 minutes at 37° C. The cell suspension was transferred to a tube and cells were pelleted by centrifugation. The cells were washed 3× with PBS followed by a single wash with “stripping” buffer (50 mM glycine, pH 2.8, 500 mM NaCl, 2M urea, 2% polyvinylpyrolidone) to remove phage particles that were both specifically and non-specifically bound to the surface of the cells. The cell suspension was neutralized by the addition of one half volume of 1 M Tris and centrifuged to pellet the cells. Cells were then lysed with PBS containing 1% SDS to recover phage that were endocytosed. To determine the number of recovered phage particles the lysate was titered by preparing a series of dilutions, infecting BL21 cells and plating on LB agar plates. The plates were incubated for 2-3 h at 37° C. until plaques were clearly visible. […]

T1 sequence (P15328 25-234): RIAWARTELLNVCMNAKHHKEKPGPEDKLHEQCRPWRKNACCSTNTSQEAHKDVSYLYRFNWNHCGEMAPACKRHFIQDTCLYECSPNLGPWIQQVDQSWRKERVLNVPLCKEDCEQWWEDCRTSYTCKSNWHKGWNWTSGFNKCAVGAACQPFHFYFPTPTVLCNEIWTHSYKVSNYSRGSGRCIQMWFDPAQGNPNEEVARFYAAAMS

share of sequenced random clones from the lysate carrying the clone's DNA tag (21 sequences): 38%
enrichment of phage clone in the population recovered from the cell lysate (hybridization to library archive array) (2 h at 37° C.): the only one enriched
SMILES: NNC(=O)COCCOCCNC(=O)CCC(NC(=O)c1ccc(NCc2cnc3nc(N)nc(O)c3n2)cc1)C(=O)O (centres unmarked) [folate-hydrazide, Folate-hydrazide]
